IC50 data for 26 molecules are collected here from patent US9284317B2, “Substituted imidazo[1,2-a]pyrazines as MPS-1 inhibitors” (Bayer Intellectual Property GmbH, priority 2010, dated 2016).

Chain of human kinase Mps-1 (N-terminally GST-tagged human full length recombinant Mps-1 kinase) (P33981 whole entry): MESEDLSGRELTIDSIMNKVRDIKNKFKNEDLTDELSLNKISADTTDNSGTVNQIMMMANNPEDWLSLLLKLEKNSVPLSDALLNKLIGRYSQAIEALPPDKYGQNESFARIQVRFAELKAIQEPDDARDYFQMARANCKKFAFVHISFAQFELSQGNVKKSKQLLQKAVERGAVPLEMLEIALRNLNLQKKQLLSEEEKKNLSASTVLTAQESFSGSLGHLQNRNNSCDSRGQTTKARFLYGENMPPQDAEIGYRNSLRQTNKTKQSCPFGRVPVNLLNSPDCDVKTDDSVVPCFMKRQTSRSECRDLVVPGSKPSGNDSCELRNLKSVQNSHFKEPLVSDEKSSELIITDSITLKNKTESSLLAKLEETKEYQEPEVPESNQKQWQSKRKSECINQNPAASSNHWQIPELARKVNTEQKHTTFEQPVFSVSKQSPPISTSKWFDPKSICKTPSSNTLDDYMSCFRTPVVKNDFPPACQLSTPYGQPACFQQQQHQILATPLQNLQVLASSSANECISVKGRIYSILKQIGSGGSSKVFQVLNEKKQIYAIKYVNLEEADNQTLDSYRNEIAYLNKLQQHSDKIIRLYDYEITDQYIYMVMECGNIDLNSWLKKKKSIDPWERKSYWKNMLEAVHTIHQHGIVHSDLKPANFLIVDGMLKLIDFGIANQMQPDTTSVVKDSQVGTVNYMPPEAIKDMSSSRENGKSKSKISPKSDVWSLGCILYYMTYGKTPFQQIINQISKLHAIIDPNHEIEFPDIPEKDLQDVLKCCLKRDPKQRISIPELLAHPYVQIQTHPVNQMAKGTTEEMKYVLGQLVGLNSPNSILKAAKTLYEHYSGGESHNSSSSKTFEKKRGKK

The target in this assay is human kinase Mps-1 (N-terminally GST-tagged human full length recombinant Mps-1 kinase) (Homo sapiens (Human), UniProt P33981). Briefly: Mps-1 Kinase Assay (TR-FRET). The class given is biochemical. The conditions noted are these: 10 μM ATP, 1 μM biotinylated peptide substrate, 60 min at 22° C., read-out: Mps1 IC50. The method, then:
The human kinase Mps-1 phosphorylates a biotinylated substrate peptide. Detection of the phosphorylated product is achieved by time-resolved fluorescence resonance energy transfer (TR-FRET) from Europium-labelled anti-phospho-Serine/Threonine antibody as donor to streptavidin labelled with cross-linked allophycocyanin (SA-XLent) as acceptor. Compounds are tested for their inhibition of the kinase activity.
N-terminally GST-tagged human full length recombinant Mps-1 kinase (purchased from Invitrogen, Karslruhe, Germany, cat. no PV4071) was used. As substrate for the kinase reaction a biotinylated peptide of the amino-acid sequence […] (C-terminus in amide form, purchased from Biosynthan GmbH, Berlin) was used.
The concentration of Mps-1 in the assay was adjusted to the activity of the enzyme lot and was chosen appropriate to have the assay in the linear range, typical enzyme concentrations were in the range of about 1 nM (final conc. in the 5 μl assay volume).
The resulting mixture was incubated 1 h at 22° C. to allow the binding of the phosphorylated peptide to the anti-phospho(Ser/Thr)-Europium-antibody. Subsequently the amount of phosphorylated substrate was evaluated by measurement of the resonance energy transfer from the Europium-labelled anti-phospho(Ser/Thr) antibody to the Streptavidin-XLent.
Consider `C/C=C/c1cn2c(-c3ccc(C(=O)NC4CC4)c(F)c3)cnc2c(NCCC(F)(F)F)n1` [Example 1-15, N-cyclopropyl-2-fluoro-4-{6-[(1E)-prop-1-en-1-yl]-8-[(3,3,3-trifluoropropyl)amino]imidazo[1,2-a]pyrazin-3-yl}benzamide], for which the 50% inhibitory concentration (IC50) (commonly the concentration that gives 50% inhibition) was 15.4 nM.

Take `CC(C)CNc1nc(C2CC=CCC2)cn2c(-c3ccc(C(=O)NC4CC4)cc3)cnc12` (centres unmarked) [Example 1-6, 4-{6-(cyclohex-3-en-1-yl)-8-[(2-methylpropyl)amino]imidazo[1,2-a]pyrazin-3-yl}-N-cyclopropylbenzamide]: the IC50 stood at 2.8 nM. As for `CC(C)(C)OC(=O)NCCCNc1nc(-c2ccncc2)cn2c(-c3ccc(C(=O)NC4CC4)cc3)cnc12` [Example 2-1, tert-butyl [3-({3-[4-(cyclopropylcarbamoyl)phenyl]-6-(pyridin-4-yl)imidazo[1,2-a]pyrazin-8-yl}amino)propyl]carbamate], the half-maximal inhibitory concentration (IC50) amounted to 8.3 nM. As to `C/C=C/c1cn2c(-c3ccc(C(=O)NC4CC4)c(F)c3)cnc2c(NCC2CCCO2)n1` (centres unmarked) [Example 1-17, N-cyclopropyl-2-fluoro-4-{6-[(1E)-prop-1-en-1-yl]-8-[(tetrahydrofuran-2-ylmethyl)amino]imidazo[1,2-a]pyrazin-3-yl}benzamide], the IC50 came to 99.2 nM. The same measure for `C/C=C/c1cn2c(-c3ccc(C(=O)NC4CC4)c(F)c3)cnc2c(NCc2ccnn2C)n1` [Example 1-18, N-cyclopropyl-2-fluoro-4-(8-{[(1-methyl-1H-pyrazol-5-yl)methyl]amino}-6-[(1E)-prop-1-en-1-yl]imidazo[1,2-a]pyrazin-3-yl)benzamide]: 31.9 nM; for `C/C=C/c1cn2c(-c3ccc(C(=O)NC4CC4)c(F)c3)cnc2c(NCC(C)(C)O)n1` [Example 1-16, N-cyclopropyl-2-fluoro-4-{8-[(2-hydroxy-2-methylpropyl)amino]-6-[(1E)-prop-1-en-1-yl]imidazo[1,2-a]pyrazin-3-yl}benzamide]: 46.5 nM; for `C/C=C(\C)c1cn2c(-c3ccc(C(=O)NC4CC4)cc3)cnc2c(NCC(C)C)n1` [Example 1-7, 4-{6-[(2E)-but-2-en-2-yl]-8-[(2-methylpropyl)amino]imidazo[1,2-a]pyrazin-3-yl}-N-cyclopropylbenzamide]: 4.1 nM.

`C/C=C/c1cn2c(-c3ccc(C(=O)NC4CC4)c(Cl)c3)cnc2c(NCc2ccnn2C)n1` [Example 1-13, 2-chloro-N-cyclopropyl-4-(8-{[(1-methyl-1H-pyrazol-5-yl)methyl]amino}-6-[(1E)-prop-1-en-1-yl]imidazo[1,2-a]pyrazin-3-yl)benzamide]: the concentration for half-maximal inhibition (IC50) was found to be 70.6 nM. With `CC(C)CNc1nc(NC(=O)c2ccccn2)cn2c(-c3ccc(C(=O)NC4CC4)cc3)cnc12` [Example 6-1, N-{3-[4-(cyclopropylcarbamoyl)phenyl]-8-[(2-methylpropyl)amino]imidazo[1,2-a]pyrazin-6-yl}pyridine-2-carboxamide] the figure was 10.4 nM. For `C=C(C)c1cn2c(-c3ccc(C(=O)NC4CC4)cc3)cnc2c(NCC(C)C)n1` [Example 1-9, N-cyclopropyl-4-{8-[(2-methylpropyl)amino]-6-(prop-1-en-2-yl)imidazo[1,2-a]pyrazin-3-yl}benzamide], the half-maximal inhibitory concentration (IC50) stood at 5.8 nM. With `CC(C)CNc1nc(/C=C2\CCC(=O)N2C)cn2c(-c3ccc(C(=O)NC4CC4)cc3)cnc12` [Example 5-1, N-cyclopropyl-4-{6-[(E)-(1-methyl-5-oxopyrrolidin-2-ylidene)methyl]-8-[(2-methylpropyl)amino]imidazo[1,2-a]pyrazin-3-yl}benzamide] the figure was 1.9 nM.

Consider `CC(C)(C)OC(=O)NCC#CCCNc1nc(-c2ccccc2)cn2c(-c3ccc(C(=O)NC4CC4)cc3)cnc12` [Example 2-2, tert-Butyl [5-({3-[4-(cyclopropylcarbamoyl)phenyl]-6-phenylimidazo[1,2-a]pyrazin-8-yl}amino)pent-2-yn-1-yl]carbamate], for which the concentration for half-maximal inhibition (IC50) worked out at 94.6 nM. As for `CC(C)CNc1nc(C2CCCC2)cn2c(-c3ccc(C(=O)NC4CC4)cc3)cnc12` [Example 4-2, 4-{6-cyclopentyl-8-[(2-methylpropyl)amino]imidazo[1,2-a]pyrazin-3-yl}-N-cyclopropylbenzamide], the IC50 came out at 6.1 nM. The same measure for `C/C=C/c1cn2c(-c3ccc(C(=O)NC4CC4)cc3)cnc2c(NCC(C)C)n1` [Example 1-1, N-cyclopropyl-4-{8-[(2-methylpropyl)amino]-6-[(1E)-prop-1-en-1-yl]imidazo[1,2-a]pyrazin-3-yl}benzamide]: 6.2 nM; for `C/C=C(/C)c1cn2c(-c3ccc(C(=O)NC4CC4)cc3)cnc2c(NCC(C)C)n1` [Example 1-4, 4-{6-[(2Z)-but-2-en-2-yl]-8-[(2-methylpropyl)amino]imidazo[1,2-a]pyrazin-3-yl}-N-cyclopropylbenzamide]: 1.9 nM. Turning to `CC(C)CNc1nc(C2CCCCC2)cn2c(-c3ccc(C(=O)NC4CC4)cc3)cnc12` [Example 4-1, 4-{6-cyclohexyl-8-[(2-methylpropyl)amino]imidazo[1,2-a]pyrazin-3-yl}-N-cyclopropylbenzamide], the 50% inhibitory concentration (IC50) amounted to 12.6 nM. With `CC(C)CNc1nc(C2=CCCCC2)cn2c(-c3ccc(C(=O)NC4CC4)cc3)cnc12` [Example 1-3, 4-{6-(cyclohex-1-en-1-yl)-8-[(2-methylpropyl)amino]imidazo[1,2-a]pyrazin-3-yl}-N-cyclopropylbenzamide], the IC50 worked out at 4.2 nM.

With `COCc1cccc(-c2cn3c(-c4ccc(C(=O)NC5CC5)cc4)cnc3c(NCC(C)C)n2)c1` [Example 1-2, N-cyclopropyl-4-{6-[3-(methoxymethyl)phenyl]-8-[(2-methylpropyl)amino]imidazo[1,2-a]pyrazin-3-yl}benzamide], the IC50 came to 7.1 nM. As to `CC(C)(C)OC(=O)NC/C=C/CCNc1nc(-c2ccccc2)cn2c(-c3ccc(C(=O)NC4CC4)cc3)cnc12` [Example 2-3, tert-Butyl [(2E)-5-({3-[4-(cyclopropylcarbamoyl)phenyl]-6-phenylimidazo[1,2-a]pyrazin-8-yl}amino)pent-2-en-1-yl]carbamate], the half-maximal inhibitory concentration (IC50) is 64 nM. The same measure for `C=Cc1ccc(-c2cn3c(-c4ccc(C(=O)NC5CC5)cc4)cnc3c(NCC(C)C)n2)cc1` [Example 1-20, N-cyclopropyl-4-{6-(4-ethenylphenyl)-8-[(2-methylpropyl)amino]imidazo[1,2-a]pyrazin-3-yl}benzamide]: 21.4 nM; for `C/C=C/c1cn2c(-c3ccc(C(=O)NC4CC4)c(Cl)c3)cnc2c(NCC(C)(C)O)n1` [Example 1-12, 2-chloro-N-cyclopropyl-4-{8-[(2-hydroxy-2-methylpropyl)amino]-6-[(1E)-prop-1-en-1-yl]imidazo[1,2-a]pyrazin-3-yl}benzamide]: 132 nM; for `C/C=C/c1cn2c(-c3ccc(C(=O)NC4CC4)c(Cl)c3)cnc2c(NCC(C)C)n1` [Example 1-10, 2-chloro-N-cyclopropyl-4-{8-[(2-methylpropyl)amino]-6-[(1E)-prop-1-en-1-yl]imidazo[1,2-a]pyrazin-3-yl}benzamide]: 72.3 nM.

For the molecule `CC(C)(C)OC(=O)NC/C=C\CCNc1nc(-c2ccccc2)cn2c(-c3ccc(C(=O)NC4CC4)cc3)cnc12` [Example 2-4, tert-Butyl [(2Z)-5-({3-[4-(cyclopropylcarbamoyl)phenyl]-6-phenylimidazo[1,2-a]pyrazin-8-yl}amino)pent-2-en-1-yl]carbamate], the half-maximal inhibitory concentration (IC50) was 12.3 nM.

Turning to `C/C=C/c1cn2c(-c3ccc(C(=O)NC4CC4)c(Cl)c3)cnc2c(NCCC(F)(F)F)n1` [Example 1-11, 2-chloro-N-cyclopropyl-4-{6-[(1E)-prop-1-en-1-yl]-8-[(3,3,3-trifluoropropyl)amino]imidazo[1,2-a]pyrazin-3-yl}benzamide], the IC50 was 34.3 nM. For the molecule `CC(C)CNc1nc(C2CC2)cn2c(-c3ccc(C(=O)NC4CC4)cc3)cnc12` [Example 1-5, N-cyclopropyl-4-{6-cyclopropyl-8-[(2-methylpropyl)amino]imidazo[1,2-a]pyrazin-3-yl}benzamide], the IC50 was 6.2 nM. Regarding `C/C=C/c1cn2c(-c3ccc(C(=O)NC4CC4)c(F)c3)cnc2c(NCC(C)C)n1` [Example 1-14, N-cyclopropyl-2-fluoro-4-{8-[(2-methylpropyl)amino]-6-[(1E)-prop-1-en-1-yl]imidazo[1,2-a]pyrazin-3-yl}benzamide], the IC50 turned out to be 38.7 nM.
